Measurements from ChEMBL document CHEMBL1121609, “Peptide sweeteners. 4. Hydroxy and methoxy substitution of the aromatic ring in L-aspartyl-L-phenylalanine methyl ester. Structure-taste relationships” (J Med Chem, 1980).
Non-standard residues stand in square brackets, D forms with d. Residues, ends and D or L forms follow the SMILES beside them. ξ: configuration not given here. Tyr(3-OMe) = COc1cc(C[C@H](N)C(=O)O)ccc1O; Phe(3-OMe) = COc1cccc(C[C@H](N)C(=O)O)c1; Dopa = N[C@@H](Cc1ccc(O)c(O)c1)C(=O)O; ξPhe(3-OMe) = COc1cccc(CC(N)C(=O)O)c1; mTyr = N[C@@H](Cc1cccc(O)c1)C(=O)O; ξmTyr = NC(Cc1cccc(O)c1)C(=O)O; ξY = NC(Cc1ccc(O)cc1)C(=O)O; ξD = NC(CC(=O)O)C(=O)O

Legend:
[1] = Determined to achieve reproducible taste; + indicates ~ 1-5 times as sweet as sucrose
[2] = Determined to achieve reproducible taste; ++ indicates ~10-40 times as sweet as sucrose
[3] = Determined to achieve reproducible taste; + indicates ~1-5 times as sweet as sucrose

SMILES | Taste [2] | other results
COC(=O)[C@H](Cc1ccc(OC)cc1)NC(=O)[C@@H](N)CC(=O)O (H-Asp-Tyr(Me)-OMe) | – | Taste [1]: ~ 1-5 times as sweet as sucrose
COC(=O)C(Cc1cccc(OC)c1)NC(=O)[C@@H](N)CC(=O)O (stereo partly specified) (H-Asp-[ξPhe(3-OMe)]-OMe) | ~10-40 times as sweet as sucrose | –
COC(=O)C(Cc1ccc(O)cc1)NC(=O)[C@@H](N)CC(=O)O (stereo partly specified) (H-Asp-[ξY]-OMe) | ~10-40 times as sweet as sucrose | –
COC(=O)[C@H](Cc1ccc(O)c(OC)c1)NC(=O)C(N)CC(=O)O (stereo partly specified) (H-[ξD]-[Tyr(3-OMe)]-OMe) | – | Taste [3]: ~1-5 times as sweet as sucrose
COC(=O)[C@H](Cc1ccc(O)c(O)c1)NC(=O)[C@@H](N)CC(=O)O (H-Asp-[Dopa]-OMe) | – | Taste [3]: ~1-5 times as sweet as sucrose
COC(=O)[C@H](Cc1cccc(O)c1)NC(=O)[C@@H](N)CC(=O)O (H-Asp-[mTyr]-OMe) | ~10-40 times as sweet as sucrose | –
COC(=O)[C@H](Cc1ccccc1O)NC(=O)[C@@H](N)CC(=O)O | ~10-40 times as sweet as sucrose | –
COC(=O)[C@H](Cc1cccc(OC)c1)NC(=O)[C@@H](N)CC(=O)O (H-Asp-[Phe(3-OMe)]-OMe) | ~10-40 times as sweet as sucrose | –
COC(=O)C(Cc1ccccc1O)NC(=O)[C@@H](N)CC(=O)O (stereo partly specified) | ~10-40 times as sweet as sucrose | –
COC(=O)C(Cc1cccc(O)c1)NC(=O)[C@@H](N)CC(=O)O (stereo partly specified) (H-Asp-[ξmTyr]-OMe) | ~10-40 times as sweet as sucrose | –
COC(=O)[C@H](Cc1ccc(O)cc1)NC(=O)[C@@H](N)CC(=O)O (H-Asp-Tyr-OMe) | ~10-40 times as sweet as sucrose | –
